In patent US4804664A, “Method and pharmaceutical preparation for treating chronic obstructive airway disease and cardiac disease, and intermediates for the preparation of therapeutically active xanthine derivatives” (priority 1978, dated 1989):
“Also recorded” adds a separate entry of the source. Where two headings read alike, the source gives them in different places.

How the values were obtained:
mice [1] = experiment: in vivo; conditions: for tonic convulsions: lethal doses; for Ratio i.v. LD50 TA/(.): theophylline relative to compound, Table 2
Protocol: (§1) Male NMRI mice, weighing 20-26 g, starved for 8 hr. were used. The compounds, dissolved in 0.5M NaOH and 0.85% NaCl-solution (pH 10.6-12.1) were administered as follows:
(§2) (a) intravenously, 0.1 ml/10 g at an injection rate of 0.3 ml per minute
(§3) At least seven dose levels, doses increasing in a geometric progression with a factor 1.2, were examined. Each dose was given to 5 animals. […] The position of extremities in dead animals indicated whether they had died in convulsions or not. The LD50 values±standard error were calculated using probit analysis.

[2] = theophylline therapy, cited from earlier work
Guinea-Pig heart = experiment: Isolated Guinea-Pig Hearts (Langendorff), chronotropic and inotropic potency; conditions: relative to theophylline (= 1); for Guinea-Pig heart Potency ratios of theophylline, chronotrop: cardioacceleration; for Guinea-Pig heart Potency ratios of theophylline, inotrop: inotropic
Protocol: From the bled guinea-pigs, the hearts were immediately removed and perfused with oxygenated Krebs solution at 37° according to Langendorff. The heart was mounted in a thermostatically controlled organ bath (25 ml) containing Krebs solution. A saline-filled, open-end polyethylene catheter was inserted into the right ventricle through the pulmonary artery. The catheter was fixed to the pulmonary artery by a ligature just above the valvular plane. It was connected to a pressure transduser (P23 AC), making it possible to record changes in intraventricular pressure. From these, the contraction frequency was obtained. Drugs were given as single bolus injections into the perfusion solution.
Potency ratios for relaxing effects on isolated bronchial smooth muscle, for cardioacceleration and for i.v. acute toxicity are illustrated. The relation between therapeutic ratios for theophylline and each compound is also calculated (column to the right).

in vivo [3] = conditions: mouse, in vivo, mice; for LD50 at 336 h: iv, i.v.; for selectivity ratio at 336 h: read-out: Ratio LD50 p.o. / LD50 i.v.
Protocol: as §1, §2, §3

mice [4] = experiment: in vivo; conditions: theophylline relative to compound, Table 2
in vivo [5] = conditions: mouse, in vivo, po, mice, p.o.
[6] = probit analysis, read-out: LD50 ± SE i.v.
[7] = probit analysis, read-out: LD50 ± SE p.o.

| SMILES | tonic convulsions (mice [1]) | major therapeutic effects ([2]; COAD and cardiac disease) | toxic side-effects [2] | Guinea-Pig heart Potency ratios of theophylline, chronotrop (Guinea-Pig heart) | Guinea-Pig heart Potency ratios of theophylline, inotrop (Guinea-Pig heart) | Ratio i.v. LD50 TA/(.) (mice [1]) | LD50 at 336 h (in vivo [3]; [6]) [mg/kg] | LD50 at 336 h (in vivo [3]; read-out: LD50 i.v.) [µmol/kg] | selectivity ratio at 336 h (in vivo [3]) | Ratio p.o. LD50 TA/(.) (mice [4]) | LD50 at 336 h (in vivo [5]; [7]) [mg/kg] | LD50 at 336 h (in vivo [5]; read-out: LD50 p.o.) [µmol/kg] |
| --- | --- | --- | --- | --- | --- | --- | --- | --- | --- | --- | --- | --- |
| Cn1c(=O)c2[nH]cnc2n(C)c1=O [Theophylline, reference compound] | in lethal doses produced tonic convulsions; also recorded: convulsions which theophylline does | relax bronchial smooth muscle and stimulate heart muscle | most common are nausea and gastric distress, most serious are convulsions, which may lead to death |  |  |  |  |  |  |  |  |  |
| CCCCn1c(=O)[nH]c(=O)c2[nH]cnc21 [D 4031, 3-butyl-3,7-dihydro-1H-purine-2,6-dione] | without convulsive effects |  |  | 5 | 2 | 1.35 | 158 ± 8.8 | 750 | 2.6 | 1.14 | 408 ± 10.7 | 1950 |
| CC(C)Cn1c(=O)[nH]c(=O)c2[nH]cnc21 [D 4030, 3,7-dihydro-3-(2-methylpropyl)-1H-purine-2,6-dione] | without convulsive effects |  |  | 5 | 2 | 1.94 | 109 ± 5.9 | 520 | 2.8 | 1.53 | 304 ± 26 | 1450 |
| CCCn1c(=O)[nH]c(=O)c2[nH]cnc21 [D 4028, 3,7-dihydro-3-propyl-1H-purine-2,6-dione] | without convulsive effects |  |  | 2 | 2.5 | 1.24 | 157 ± 7.1 | 810 | 3.1 | 0.87 | 501 ± 54 | 2550 |
